In patent publication US20160193231A1, “RETT SYNDROME AND TREATMENTS THEREFORE” (RETT SYNDROME RESEARCH TRUST, priority 2013, published 2016):
Structures can show the parent of a compound that is named as a salt. Where two headings read alike, the source gives them in different places.

Assays:
[1] = test system: 129.Mecp2^tm1.1Bird/Y mice; assay: Survival (longevity) of treated Mecp2 null male mice; type: in vivo, mouse; details: 129.Mecp2^tm1.1Bird/Y males, fluvastatin 3 mg/kg s.c.
[2] = cited from earlier work
[3] = cited from earlier work; remark: listed apart in the source
[4] = cited from earlier work; remark: listed apart in the source
[5] = in vivo; cited from earlier work
[6] = test system: cytochrome p450 enzymes; details: cited from earlier work
[7] = test system: Mecp2^tm1.1Bird/Y mice; assay: Peripheral fat measures of treated Mecp2 null males; type: in vivo, mouse; details: Example 6/FIG. 9; 25 mg/kg Sub-Q 2x per week
Description: The preparation of the agents used in this Example was as follows: metformin hydrochloride, was dissolved in saline (Sigma). The day of injection, the metformin was diluted to 18 parts stock solution, 1 part DMSO, and 1 part ethanol, such that the desired dose for a 20 g mouse was given in 100 ul. […] The animals were treated starting at 5 weeks of age until the age of 10 weeks, or for a period of 5 weeks. Body weights were obtained weekly starting at 5 weeks of age prior to treatment, and ending at 10 weeks, at the end of study. Shown in the FIG. 9 are the weights after 3 weeks of treatment (at 8 weeks of age, panel A) and after 5 weeks of treatment (10 weeks of age, panel D).

[8] = test system: 129.Mecp2^tm1.1Bird/Y mice; assay: Accelerating rotarod task, Mecp2 null males; type: in vivo, mouse
[9] = test system: 129.Mecp2^tm1.1Bird/Y mice; assay: Open field locomotor activity, Mecp2 null males; type: in vivo, mouse
[10] = test system: MECP2 mutant mice; assay: Trait amelioration / symptom rescue in Mecp2 mutant mice; type: in vivo, mouse; details: for rescue of motor traits and longevity: male mice, drugs sub-cutaneously
[11] = test system: 129.Mecp2^tm1.1Bird/Y mice; assay: Serum/plasma cholesterol, Mecp2 null males; type: in vivo, mouse; details: by P70; fluvastatin p=0.001, lovastatin p=0.001
[12] = test system: 129.Mecp2^tm1.1Bird/Y mice; assay: Liver lipid measurement, Mecp2 null males; type: in vivo, mouse; details: P70; fluvastatin p=0.02; lovastatin p=0.386
[13] = Example 6/FIG. 9, 25 mg/kg Sub-Q (3 mg/kg elsewhere in the source) 2x per week, vs vehicle

CC(C)n1c(/C=C/C(O)CC(O)CC(=O)O)c(-c2ccc(F)cc2)c2ccccc21 (stereo not shown) [fluvastatin]
survival beyond 120 days [1]: 57% | median longevity ([1]; compared to 87 days, p<0.0001): 122 days | solubility in water [2]: soluble in water | LD50 (oral): ([3]; mouse, in vivo, po): >2000 mg/kg | Lipophilicity (LogD): [4]: 1.00-1.25 | half-life [5]: approximately 96 hours | Metabolized by: [6]: Cyp2C9

O=S(=O)(c1ccccc1)N(CC(F)(F)F)c1ccc(C(O)(C(F)(F)F)C(F)(F)F)cc1 [T090317]
peripheral fat measures [7]: did not appear to improve | motor performance, rotarod [8, 13]: improved motor performance | motor performance, open field activity [9, 13]: improved motor performance

CC(C)c1c(C(=O)Nc2ccccc2)c(-c2ccccc2)c(-c2ccc(F)cc2)n1CC[C@@H](O)C[C@@H](O)CC(=O)O [atorvastatin]
rescue of motor traits and longevity [10]: varying degrees of rescue

Cl.F/C(COc1ccc2c(c1)[nH]c1ccccc12)=C1/CN2CCC1CC2 [(E)-2-[2-fluoro-2-(quinuclidin-3-ylidene)ethoxy]-9H-carbazole monohydrochloride]
improvement of symptoms ([10]; Mecp2 mice, drugs targeting squalene synthase or squalene epoxidase): did not significantly improve symptoms

CC[C@H](C)C(=O)O[C@H]1C[C@@H](C)C=C2C=C[C@H](C)[C@H](CC[C@@H]3C[C@@H](O)CC(=O)O3)[C@H]21 [lovastatin]
rescue of motor traits and longevity [10]: best rescue | plasma cholesterol [11]: lowers | elevated lipid concentration in livers [12]: ameliorates | Rotarod performance ([8]; P56 treated null males vs vehicle, fluvastatin 3 mg/kg s.c. p=0.015, lovastatin […] s.c. p=0.009): improves | LD50 (oral): ([3]; (mouse)): >1000 mg/kg | Open field activity (beam breaks) ([9]; P70 treated null males vs vehicle, fluvastatin p=0.026, lovastatin p=0.011): increased | Lipophilicity (LogD): [4]: 1.75-1.50 | Metabolized by: [6]: Cyp3A4

CN(C)C(=N)N=C(N)N [metformin, metformin hydrochloride]
effect on Mecp2^tm1.1Bird/Y mice (FIG. 9 measures) ([10]; Example 6, 30 mg/kg IP 2x per week, 5 to 10 weeks of age, vs vehicle): little effect

CCC(C)(C)C(=O)O[C@H]1C[C@@H](C)C=C2C=C[C@H](C)[C@H](CC[C@@H]3C[C@@H](O)CC(=O)O3)[C@H]21 [simvastatin]
half-life [5]: 2 to 3 h
